Holding throughout (type): biochemical
The target in one test is human PDE1A (Homo sapiens (Human), UniProt P54750). The test is described as follows: Ca2+-calmodulin dependent PDE enzyme assay (radiometric SPA, [3H]cAMP). The note with it: Mean ± standard deviation; [3H]cAMP 47 nM; read-out: PDE 1A IC50. The text has this:
(§1) The nucleotide sequences encoding full-length human PDE1A (NP_001003683.1) and PDE1C (NP_005011.1) are inserted into pFastBac1 (Invitrogen) vector with an N-terminal HIS tag. The nucleotide sequences encoding full-length human PDE4D (NP_006194.2) and catalytic domain (residue 641-1141) of PDE3A (NP_000912.3) are inserted into pFastBac1 (Invitrogen) vector with a C-terminal HIS tag. The nucleotide sequences encoding full-length human PDE6A (NP_000431.2) and PDE6B (AAH00249.1) are inserted into pFastBacDual (Invitrogen) vector with an N-terminal HIS tag and N-terminal Flag tag, respectively, for production of PDE6A/6B dimer. Baculovirus generation and protein expression in Sf9 cells are carried out according to the protocol of Bac-to-Bac Baculovirus Expression system (Invitrogen). The nucleotide sequence encoding full-length human PDE1B (NP_000915.1) is inserted into pIEX4 (Novagen) with a C-terminal HIS tag, and both protein productions in Sf9 cells are carried out according to the vendor's protocol (Novagen). The His tagged PDE proteins are purified using Ni-NTA agarose (Qiagen) followed by size exclusion chromatography on a SUPERDEX© 200 column (GE Healthcare) in storage buffer (20 mM Tris-HCl, pH 7.5, 150 mM NaCl, 10% Glycerol). The Flag tagged PDE proteins including PDE6A/6B are purified using anti-Flag M2-agarose (Sigma), after purification through NiNTA column chromatography and eluted in storage buffer (50 mM Tris-HCl, pH 7.5, 150 mM NaCl, 10% Glycerol, 0.1 mg/ml Flag peptide). All purified proteins are stored at −80° C. in small aliquots.
(§2) All 3′, 5′ cyclic nucleotide PDE enzyme activities are measured with a radiometric enzyme assay based on SPA detection system. Compounds to be tested are diluted in pure DMSO using ten point concentration response curves. Maximal compound concentration in the reaction mixture is either 10 or 100 μM. Compounds at the appropriate concentration are pre-incubated with either of the PDE enzymes for 30 minutes before the reaction is started by the addition of substrate. Reactions are allowed to proceed for 60 minutes at room temperature. Next, reactions are stopped by addition of SPA beads. Samples are read 12 hours later in a MICROBETA™ TRILUX© Counter. IC50 values are calculated by plotting the normalized data vs. log [compound] and fitting the data using a four parameter logistic equation.
(§3) PDE1B, PDE1A, and PDE1C are cloned and purified following standard protein generation procedures. […] The final enzyme concentration is 0.25, 0.074 and 0.0012 nM, for PDE1A, PDE1B and PDE1C respectively. The reactions are started by addition of the substrate, [^3H]cAMP, to give a final concentration of 47 nM.

The next test has as its target human PDE1B (Homo sapiens (Human), UniProt Q01064). Described as above. The note with it: Mean ± standard deviation; [3H]cAMP 47 nM; read-out: PDE 1B IC50.
From the text: as §1, §2, §3

In a further test the target is human PDE1C (Homo sapiens (Human), UniProt Q14123). The test is described as above. The following applies: Mean ± standard deviation; [3H]cAMP 47 nM; read-out: PDE 1C IC50.
From the text: as §1, §2, §3

Test [1] deals with human PDE3A (catalytic domain) (Homo sapiens (Human), UniProt Q14432). The test is described as follows: PDE enzyme assay using [3H]cAMP as substrate (SPA). The note with it: [3H]cAMP 47 nM.
Chain of human PDE3A (catalytic domain) (Q14432 641-1141): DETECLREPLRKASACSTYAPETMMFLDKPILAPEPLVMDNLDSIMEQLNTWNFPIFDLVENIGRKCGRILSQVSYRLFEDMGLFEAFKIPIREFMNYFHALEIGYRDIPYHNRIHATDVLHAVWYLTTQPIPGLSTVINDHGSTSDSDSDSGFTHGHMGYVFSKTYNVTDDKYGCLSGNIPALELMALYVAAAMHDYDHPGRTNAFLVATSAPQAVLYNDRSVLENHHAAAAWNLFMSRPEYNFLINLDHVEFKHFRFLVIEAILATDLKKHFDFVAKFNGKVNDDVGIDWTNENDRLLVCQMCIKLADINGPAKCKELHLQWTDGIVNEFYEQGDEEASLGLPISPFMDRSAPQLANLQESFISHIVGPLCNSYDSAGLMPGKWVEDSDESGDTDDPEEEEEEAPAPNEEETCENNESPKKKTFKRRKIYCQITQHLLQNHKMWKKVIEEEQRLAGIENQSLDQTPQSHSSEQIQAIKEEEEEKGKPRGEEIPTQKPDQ
From the text: as §1, §2
(§4) The following PDE activities are measured using [3H]cAMP as reaction substrate: human PDE3A (catalytic domain) and human PDE4D. Both enzymes are cloned and purified following standard procedures. The assay buffer is prepared to give a final concentration in the assay of 50 mM Tris-HCl, 8.3 mM MgCl2, 1.7 mM EDTA and 0.1% BSA at pH 7.5. Final enzyme concentrations are 0.008 and 0.021 nM for PDE3A and PDE4D, respectively. Reactions are started by addition of the substrate, [3H]cAMP, to give a final concentration of 47 nM.

For another test, the target named is human PDE4D (Homo sapiens (Human), UniProt Q08499). Put plainly: PDE enzyme assay using [3H]cAMP as substrate (SPA). The note with it: Mean ± standard deviation; [3H]cAMP 47 nM.
Chain of human PDE4D (Q08499 other isoform, or with tags, fused parts or gaps): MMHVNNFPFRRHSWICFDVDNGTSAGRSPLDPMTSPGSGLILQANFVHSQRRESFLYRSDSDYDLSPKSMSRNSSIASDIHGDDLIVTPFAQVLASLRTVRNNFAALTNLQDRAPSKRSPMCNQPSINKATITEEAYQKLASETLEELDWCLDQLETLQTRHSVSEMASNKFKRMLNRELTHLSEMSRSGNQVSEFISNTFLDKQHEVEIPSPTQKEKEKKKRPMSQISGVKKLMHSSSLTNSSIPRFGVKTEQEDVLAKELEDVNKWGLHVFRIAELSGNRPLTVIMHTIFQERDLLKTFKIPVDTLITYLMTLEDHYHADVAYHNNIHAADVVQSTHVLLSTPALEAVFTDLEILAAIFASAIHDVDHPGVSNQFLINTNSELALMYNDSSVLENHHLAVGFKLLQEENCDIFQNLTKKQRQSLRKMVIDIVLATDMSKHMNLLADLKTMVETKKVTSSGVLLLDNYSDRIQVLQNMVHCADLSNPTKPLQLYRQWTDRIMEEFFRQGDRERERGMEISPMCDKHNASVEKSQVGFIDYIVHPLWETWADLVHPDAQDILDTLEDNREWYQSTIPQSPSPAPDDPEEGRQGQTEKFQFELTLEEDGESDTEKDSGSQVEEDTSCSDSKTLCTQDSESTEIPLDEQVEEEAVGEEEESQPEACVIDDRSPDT
From the text: as §1, §2, §4

The next test has as its target human PDE6A/6B (Homo sapiens (Human), UniProt P16499+P35913). Put plainly: PDE enzyme assay using [3H]cGMP as substrate (SPA). The following applies: [3H]cGMP 80 nM; read-out: PDE6AB IC50.
From the text: as §1, §2
The following phosphodiesterase activities are measured using [3H]cGMP as reaction substrate: human PDE6A/6B. The catalytic active form of human PDE6 is a dimer composed of an a (human PDE6A) and […] (human PDE6B). The dimer of human PDE6A/6B is produced by the coexpression and purification strategy, using two purification steps, i.e., NiNTA and anti-FLAG Sepharose chromatography. The assay buffer is prepared to give a final concentration in the assay of 50 mM Tris-HCl, 8.3 mM MgCl2, 1.7 mM EDTA and 0.1% BSA at pH 7.5. The final enzyme concentration is 5 nM. The reactions are started by addition of the substrate, [3H]cGMP, to give a final concentration of 80 nM.

A value given as a limit tells only on which side of the number the result lay.

Chain of human PDE6A/6B (P16499 whole entry): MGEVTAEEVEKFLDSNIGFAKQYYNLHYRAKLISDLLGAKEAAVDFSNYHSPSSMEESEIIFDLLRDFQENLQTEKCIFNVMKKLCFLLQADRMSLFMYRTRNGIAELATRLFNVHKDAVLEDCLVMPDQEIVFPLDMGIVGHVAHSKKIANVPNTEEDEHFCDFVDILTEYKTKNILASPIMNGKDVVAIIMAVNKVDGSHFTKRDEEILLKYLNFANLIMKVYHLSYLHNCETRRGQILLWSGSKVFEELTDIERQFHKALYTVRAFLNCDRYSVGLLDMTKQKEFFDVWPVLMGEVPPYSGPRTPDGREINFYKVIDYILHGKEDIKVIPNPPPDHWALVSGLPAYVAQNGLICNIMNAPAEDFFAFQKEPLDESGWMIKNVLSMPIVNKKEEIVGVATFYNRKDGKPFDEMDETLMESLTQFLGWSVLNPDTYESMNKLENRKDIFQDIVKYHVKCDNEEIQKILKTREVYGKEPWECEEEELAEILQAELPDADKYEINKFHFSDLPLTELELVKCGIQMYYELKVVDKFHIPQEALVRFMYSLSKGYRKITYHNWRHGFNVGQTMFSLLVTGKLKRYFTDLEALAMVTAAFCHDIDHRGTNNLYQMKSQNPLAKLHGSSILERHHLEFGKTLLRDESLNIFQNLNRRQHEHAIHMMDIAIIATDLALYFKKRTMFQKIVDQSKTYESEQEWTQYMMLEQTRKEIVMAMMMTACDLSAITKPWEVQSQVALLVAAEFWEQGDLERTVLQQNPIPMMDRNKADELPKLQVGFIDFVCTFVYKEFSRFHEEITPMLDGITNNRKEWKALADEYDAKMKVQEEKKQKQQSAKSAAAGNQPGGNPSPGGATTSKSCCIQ
Chain of human PDE6A/6B (P35913 whole entry): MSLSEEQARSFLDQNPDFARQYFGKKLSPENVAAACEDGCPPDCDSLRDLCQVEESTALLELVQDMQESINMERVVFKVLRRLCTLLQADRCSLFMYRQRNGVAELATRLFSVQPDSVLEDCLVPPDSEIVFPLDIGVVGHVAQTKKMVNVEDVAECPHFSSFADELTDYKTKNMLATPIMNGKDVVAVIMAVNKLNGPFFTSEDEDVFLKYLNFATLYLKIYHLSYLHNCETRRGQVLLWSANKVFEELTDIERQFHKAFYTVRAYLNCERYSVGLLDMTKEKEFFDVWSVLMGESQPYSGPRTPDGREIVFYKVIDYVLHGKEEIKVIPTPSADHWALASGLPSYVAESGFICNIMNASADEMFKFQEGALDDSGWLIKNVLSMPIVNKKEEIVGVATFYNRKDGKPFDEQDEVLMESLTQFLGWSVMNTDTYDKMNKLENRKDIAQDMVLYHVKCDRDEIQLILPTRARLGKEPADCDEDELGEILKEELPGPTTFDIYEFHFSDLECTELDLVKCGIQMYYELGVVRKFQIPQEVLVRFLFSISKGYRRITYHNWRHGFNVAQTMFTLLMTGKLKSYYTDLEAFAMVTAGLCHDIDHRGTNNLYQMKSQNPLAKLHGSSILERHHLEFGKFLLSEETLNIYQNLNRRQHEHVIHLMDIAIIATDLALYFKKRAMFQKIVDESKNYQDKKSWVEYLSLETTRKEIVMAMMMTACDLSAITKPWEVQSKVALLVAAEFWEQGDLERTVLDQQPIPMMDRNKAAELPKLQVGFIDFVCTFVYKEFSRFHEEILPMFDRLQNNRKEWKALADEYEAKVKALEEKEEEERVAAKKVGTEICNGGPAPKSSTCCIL

By IC50 is commonly meant the concentration at which inhibition is half-maximal. Take `CCCCn1c(C)c(C)n2c(C3(C4CC4)CC3)nnc2c1=O` [Example 5, 7-Butyl-3-(1-cyclopropylcyclopropyl)-5,6-dimethyl-[1,2,4]triazolo[4,3-a]pyrazin-8-one]: the IC50 on human PDE1A is 11.5 ± 3.6 nM; at human PDE1B, 11.1 ± 3 nM; on human PDE1C, 2.7 ± 0.16 nM; in test [1] it was more than 100000 nM; at human PDE4D, 29900 nM; at human PDE6A/6B it was more than 10000 nM.

For the origin of these results see patent US11453673B2, “Substituted [1,2,4]triazolo[4,3-a]pyrazines as phosphodiesterase inhibitors” (Eli Lilly and Company, priority 2018, dated 2022).
